Assay results: ChEMBL document CHEMBL1201862, “PubChem BioAssay data set” (2004)
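48-hour exposure; five concentrations; linearly interpolated endpoints. GI50 is the concentration that inhibits growth by half.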 Calls of active or inactive are those of the source. Cut-off read from the data, not from the text of the source: active = GI50 up to about 1.1 µM and inactive = higher.

Key:
Test in all cases: NCI tumour cell line growth inhibition, 48 h
[1] = tested on: DMS-114
[2] = tested on: OVCAR-8
[3] = tested on: UO-31

Measured: GI50

COC(=O)C1=C(C)N2CCCOC2(C)C(C(=O)OC)C1c1cccc(Cl)c1 (stereo not drawn)
inactive: [1] 19.1 µM | [2] 24.9 µM | [3] 22.3 µM
